{"source": "patent US9968585B2", "about": "“Prevention or treatment agent for cerebral amyloid beta storage diseases” (TOYAMA CHEMICAL CO., LTD., priority 2014, dated 2018)", "key": {"[1]": {"system": "patient with complication of AZD and CAA", "assay": "Clinical case, Example 1: patient with complication of AZD and CAA", "assay_type": "in vivo, human", "from_the_text": "Patient\nFamily history: […] died of cerebral hemorrhage (type unknown) in his 50s. […]\nPast history: deep white matter lesions (diagnosed by head MRI, T2-WI), lateral ventricular low density area (diagnosed by head CT), and moderate cerebral atrophy in the cerebral cortex including the hippocampus, parietal lobe, and frontal lobe and mild disturbance of memorization had been observed. However, there was no particular problem in everyday life.\nHistory of present illness: person, walking difficulty (decreased speed and decreased stability of walking) appeared and then progressed slowly. Continuous walking of long distances of 600 m or more and walking with a heavy load (10 kg or more) in their hand or on their shoulder became difficult. Short-stepped gait and frontal gait appeared sometimes, with no fall. Cerebrovascular disorder was suspected and examinations by CT and MRI (other than T2-WI) were conducted. However, any responsible lesions, which were likely to develop relatively rapid walking difficulties, were not found, other than deep white matter lesions and moderate cerebral atrophy, which were observed previously. Parkinson's disease (syndrome) was also suspected and a therapeutic agent for the disease was temporarily administered, which was stopped because of the lack of efficacy. […] Instability of walking also progressed relatively rapidly and it became difficult to walk outdoor without a walking stick.\nMeanwhile, MRI (T1/2WI, T2-WI) detected multiple micro-bleeding mainly in the area from bilateral basal ganglia (thalamus and hypothalamus) to upper brain stem and the patient was diagnosed with CAA. The patient was also diagnosed with AZD based on diffuse cerebral atrophy including hippocampus and a wide range of cerebral cortex and moderate dementia. […]\nFor walking, an assistance, or at least handrail, became always necessary and continuous walking of distances of 50 m or more became difficult (unstable) even with an assistance. Furthermore, the patient was frequently found in a somnolence state even in the daytime and occasional decrease in the level of consciousness during meal caused difficulty in swallowing. Standing and walking became impossible during a period of repeated high fever. Chest CT detected a sign of aspiration pneumonia and the patient was admitted to a nearby hospital.\nImmediately after the hospitalization, administration of antibiotics against the pulmonary inflammatory disease was started and high dose administration of mineralocorticoid (200 mg injection of Hydrocortone/day, for 7 days in plan) was also started for the purpose of steroid supplementation against the potential hypoadrenalism (mineral imbalance), due to the previous sustained steroid (5 mg) therapy. […] On Day 9 after the hospitalization, the patient became almost bedridden and nonresponsive. On Day 10 after the hospitalization, administration of a high dose of glucocorticoid (30 mg/day of Predonine) for anti-inflammatory effect was therefore started for the purpose of ameliorating the cerebral hypofunction, based on the informed consent.\nHowever, from Day 20 after the hospitalization, a somnolence tendency appeared again and the symptoms of decline of cognitive ability, inability to walk, lack of speech, urine incontinence, apraxia and agnosia appeared again.\nSince no tendency to alleviate the symptoms was observed, on Day 22 after the hospitalization, administration of 25 mg of iguratimod (for example, the trade name “Kolbet” produced and sold as an antirheumatic drug by Taisho Toyama Pharmaceutical Co., Ltd. or the trade name “Careram” produced and sold by Eisai Co., Ltd.), in addition to the high dose glucocorticoid therapy, was started for the purpose of ameliorating cognitive impairment, walking impairment, decrease of energy and spontaneity, and aphasia, apraxia, and agnosia, based on the informed consent. […]"}, "[2]": {"system": "patient with moderate dementia caused by AZD", "assay": "Clinical case, Example 2: patient with moderate dementia caused by AZD, not associated with CAA", "assay_type": "in vivo, human", "procedure": "A person became indifferent to social activities and meeting people 3 to 4 years ago. Cognitive impairment appeared to the degree to cause difficulty in daily life activities 2 years ago. One year ago, cognitive impairment further progressed and MMSE was conducted to get scores of 14 or less. Since a head imaging detected moderate atrophy in the cerebral cortex including the parietal lobe and the hippocampus, the patient was diagnosed with “moderate dementia caused by AZD” based on the clinical and brain imaging observations. In the everyday life, disturbance of memorization was observed, in which the patient forgot contents of conversation in 5 minutes and purchased the same thing repeatedly when they went out alone. The patient liked cooking previously, but became unable to cook or adjust the taste. […] The patient became unable to manage own medication such as an antihypertensive agent (cognitive impairment on table and calculation) and management by a family member became necessary. Since efficacy (suppression of progressive symptoms) of a conventional drug against AZD was not observed for a half year or more, the administration of iguratimod at 25 mg/day was started, based on the informed consent to the patient and their family, and the dose was increased to 50 mg/day 4 weeks later."}, "[3]": {"system": "production of interleukin-1 and 6 (IL-1/6) and tumor necrosis factor (TNFα) from monocyte lineage cells (macrophages)", "settings": "in inflammation; cited from earlier work"}, "[4]": {"settings": "compared with MTX and SASP; cited from earlier work"}, "[5]": {"settings": "6 months after starting the administration"}, "[6]": {"settings": "at discharge, 2 months after starting the administration"}}, "data": [{"smiles": "C[C@]12CCC(=O)C=C1CC[C@@H]1[C@@H]2[C@@H](O)C[C@@]2(C)[C@H]1CC[C@]2(O)C(=O)CO", "note": "[Hydrocortone]", "values": [{"measurement": "neurological symptoms (energy, speech, cognitive function, walking ability)", "setting": "[1]; 200 mg injection/day, from 3 days after the start of the steroid replacement therapy", "result": "increase in energy and speech, amelioration of cognitive function, and improvement of walking ability were observed"}, {"measurement": "neurological symptoms", "setting": "[1]; 200 mg injection/day, from Day 5 to 6 after the start of administration", "result": "the symptoms gradually aggravated"}]}, {"smiles": "C[C@]12C=CC(=O)C=C1CC[C@@H]1[C@@H]2[C@@H](O)C[C@@]2(C)[C@H]1CC[C@]2(O)C(=O)CO", "note": "[Predonine]", "values": [{"measurement": "neurological symptoms (somnolence, energy, speech, walking, meals)", "setting": "[1]; high dose glucocorticoid (30 mg/day of Predonine) started on Day 10 after hospitalization", "result": "alleviated a neurological symptom (decrease in somnolence), increased energy and speech"}, {"measurement": "prevention of progression of the symptoms", "setting": "[1]; sustained glucocorticoid therapy at maximum dose for the patient's age, for 10 days or more, symptoms reappeared from Day 20 after hospitalization", "result": "cannot prevent the progression of the symptoms"}]}, {"smiles": "CS(=O)(=O)Nc1cc2occ(NC=O)c(=O)c2cc1Oc1ccccc1", "note": "[iguratimod, N-(3-formamido-4-oxo-6-phenoxy-4H-chromen-7-yl) methanesulfonamide]", "values": [{"measurement": "continuous walking distance with an assistance", "setting": "[1]; [5]", "result": "about 100 m"}, {"measurement": "steps of stairs walked up with an assistance and use of handrail", "setting": "[1]; [5]", "result": 15, "unit": "steps"}, {"measurement": "head MRI: novel vascular abnormality or progression of cerebral atrophy", "setting": "[1]; 6 months after starting the administration, compared with MRI before starting", "result": "did not detect any appearance of novel vascular abnormality or progression of cerebral atrophy"}, {"measurement": "head imaging by 3T-MRI:SWI: progression of cerebral atrophy and other lesions", "setting": "[1]; 7 months and 19 months after the beginning of iguratimod", "result": "the progression of cerebral atrophy and other lesions was not apparent"}, {"measurement": "eating behavior", "setting": "[1]; a half year after starting the administration", "result": "able to have meals by oneself using chopsticks"}, {"measurement": "continuous walking distance with an assistance", "setting": "[1]; [6]", "result": "about 50 m"}, {"measurement": "steps of stairs walked up with an assistance at both arms", "setting": "[1]; [6]", "result": 8, "unit": "steps"}, {"measurement": "spontaneity and neurological symptoms", "setting": "[1]; iguratimod 25 mg added to high dose glucocorticoid, 2 days after starting the administration", "result": "apparent amelioration of spontaneity was observed"}, {"measurement": "mini-mental state examination (MMSE) score", "setting": "[1]; one year after starting oral administration, score before starting 10 or less (severe dementia)", "result": "≥ 10"}, {"measurement": "symptoms after steroid agent stopped completely", "setting": "[1]; one year after starting the administration of iguratimod", "result": "no aggravation of symptoms"}, {"measurement": "head imaging: progression of cerebral atrophy", "setting": "[2]; 5 months after starting the administration", "result": "the progression of cerebral atrophy was not observed"}, {"measurement": "Scores of MMSE", "setting": "[2]; 5 months after starting the administration, scores one year before 14 or less", "result": "≥ 17"}, {"measurement": "symptoms in daily life", "setting": "[2]; iguratimod 25 mg/day, 50 mg/day after 4 weeks, 3 months after starting the administration", "result": "symptoms such as getting lost and failing to go home and purchasing the same thing repeatedly had disappeared"}, {"measurement": "effect on production of IL-1/6 and TNFα from monocyte lineage cells (macrophages)", "setting": "[3]", "result": "suppressing effects"}, {"measurement": "efficacy in rheumatoid arthritis", "setting": "[4]", "result": "efficacy equivalent to MTX and SASP"}]}]}
